From PubChem BioAssay (NCI)
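1) Cells in 96-well plates. 2) Compound, 48 h, 5 concentrations. 3) Linear interpolation between surrounding doses. 4) Unreached endpoint = highest concentration. The concentration for 50% growth inhibition is given as GI50. TGI denotes the concentration required for complete inhibition of growth.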

What was measured:
Experiment in all cases: NCI-60 cell line screen, 48 h
[1] = system: K-562 leukemia
[2] = system: SK-MEL-5 melanoma
[3] = system: SK-MEL-2 melanoma
[4] = system: TK-10 renal
[5] = system: IGROV1 ovarian
[6] = system: UO-31 renal
[7] = system: LOX IMVI melanoma
[8] = system: SNB-19 CNS
[9] = system: DU-145 prostate
[10] = system: HT29 colon
[11] = system: HOP-62 NSCLC
[12] = system: OVCAR-5 ovarian
[13] = system: A549 NSCLC
[14] = system: MDA-MB-231 breast
[15] = system: MALME-3M melanoma
[16] = system: OVCAR-3 ovarian
[17] = system: CCRF-CEM leukemia
[18] = system: OVCAR-4 ovarian
[19] = system: BT-549 breast
[20] = system: MDA-MB-435
[21] = system: MOLT-4 leukemia
[22] = system: RPMI-8226 leukemia
[23] = system: UACC-257 melanoma
[24] = system: RXF 393 renal
[25] = system: CAKI-1 renal
[26] = system: HCT-15 colon
[27] = system: NCI-H460 lung
[28] = system: U251 CNS
[29] = system: COLO 205 colon
[30] = system: NCI/ADR-RES ovarian
[31] = system: SK-OV-3 ovarian
[32] = system: MCF7 breast
[33] = system: 786-0 renal
[34] = system: SNB-75 CNS
[35] = system: M14 melanoma
[36] = system: SW-620 colon
[37] = system: SF-295 CNS
[38] = system: HL-60(TB) leukemia
[39] = system: HCC-2998 colon
[40] = system: SF-268 CNS
[41] = system: HS 578T breast
[42] = system: SR leukemia
[43] = system: T-47D breast
[44] = system: NCI-H23 lung
[45] = system: ACHN renal
[46] = system: PC-3 prostate
[47] = system: SN12C renal
[48] = system: HCT-116 colon
[49] = system: KM12 colon
[50] = system: UACC-62 melanoma
[51] = system: NCI-H522 lung
[52] = system: SF-539 CNS
[53] = system: HOP-92 NSCLC
[54] = system: SK-MEL-28 melanoma
[55] = system: EKVX NSCLC
[56] = system: OVCAR-8 ovarian

SMILES: [N-]=[N+]=Nc1c(Cc2ccccc2)c(=O)oc2ccccc12
- TGI [1]: 86.9 µM
- TGI [2]: 20.2 µM
- TGI [3]: 78.8 µM
- TGI [4]: 60.4 µM
- TGI [5]: 70.6 µM
- TGI [6]: > 100 µM
- TGI [7]: 28.4 µM
- TGI [8]: > 100 µM
- TGI [9]: > 100 µM
- TGI [10]: 54.5 µM
- TGI [11]: 50.3 µM
- TGI [12]: > 100 µM
- TGI [13]: > 100 µM
- TGI [14]: > 100 µM
- TGI [15]: > 100 µM
- TGI [16]: > 100 µM
- TGI [17]: 45.8 µM
- TGI [18]: > 100 µM
- TGI [19]: 46.9 µM
- TGI [20]: 58.5 µM
- TGI [21]: 26.2 µM
- TGI [22]: > 100 µM
- TGI [23]: > 100 µM
- TGI [24]: 38 µM
- TGI [25]: > 100 µM
- TGI [26]: > 100 µM
- TGI [27]: 57.3 µM
- TGI [28]: 69.7 µM
- TGI [29]: 98.4 µM
- TGI [30]: > 100 µM
- TGI [31]: > 100 µM
- TGI [32]: 70.9 µM
- TGI [33]: > 100 µM
- TGI [34]: > 100 µM
- TGI [35]: 62.3 µM
- TGI [36]: 39.7 µM
- TGI [37]: > 100 µM
- TGI [38]: > 100 µM
- TGI [39]: 62.1 µM
- TGI [40]: 62.1 µM
- TGI [41]: 61.3 µM
- TGI [42]: > 100 µM
- TGI [43]: > 100 µM
- TGI [44]: 78.1 µM
- TGI [45]: > 100 µM
- TGI [46]: > 100 µM

SMILES: CCC(CC)c1nc(Nc2cccc(OC)c2)c2ccccc2n1
- GI50 [1]: 4.3 µM
- TGI [1]: > 50 µM
- GI50 [47]: 7.35 µM
- TGI [47]: 13.9 µM
- GI50 [2]: 6.07 µM
- TGI [2]: 12.3 µM
- GI50 [3]: 7.11 µM
- TGI [3]: 15.2 µM
- GI50 [48]: 8.31 µM
- TGI [48]: 15.1 µM
- GI50 [4]: 10.7 µM
- TGI [4]: 17.9 µM
- GI50 [5]: 10.2 µM
- TGI [5]: 19.2 µM
- GI50 [6]: 6.95 µM
- TGI [6]: 13.4 µM
- GI50 [49]: 6.11 µM
- TGI [49]: 12.3 µM
- GI50 [7]: 6.43 µM
- TGI [7]: 12.7 µM
- GI50 [8]: 6.86 µM
- TGI [8]: 13.3 µM
- GI50 [9]: 6.48 µM
- TGI [9]: 12.8 µM
- GI50 [50]: 7.28 µM
- TGI [50]: 13.8 µM
- GI50 [11]: 8.06 µM
- TGI [11]: 14.8 µM
- GI50 [12]: 9.68 µM
- TGI [12]: 16.7 µM
- GI50 [13]: 7.11 µM
- TGI [13]: 13.6 µM
- GI50 [14]: 6.57 µM
- TGI [14]: 12.9 µM
- GI50 [16]: 5.9 µM
- TGI [16]: 12 µM
- GI50 [51]: 7.51 µM
- TGI [51]: 15.3 µM
- GI50 [52]: 8.29 µM
- TGI [52]: 15.1 µM
- GI50 [18]: 6.95 µM
- TGI [18]: 13.6 µM
- GI50 [53]: 2.86 µM
- TGI [53]: 9.98 µM
- GI50 [19]: 7.19 µM
- TGI [19]: 13.7 µM
- GI50 [20]: 6.92 µM
- TGI [20]: 13.4 µM
- GI50 [22]: 5.41 µM
- TGI [22]: 11.3 µM
- GI50 [23]: 8.06 µM
- TGI [23]: 14.8 µM
- GI50 [24]: 7.29 µM
- TGI [24]: 14.7 µM
- GI50 [25]: 5.9 µM
- TGI [25]: 12 µM
- GI50 [54]: 6.72 µM
- TGI [54]: 13.1 µM
- GI50 [26]: 7.45 µM
- TGI [26]: 14.1 µM
- GI50 [27]: 12.9 µM
- TGI [27]: 38.4 µM
- GI50 [28]: 7.98 µM
- TGI [28]: 14.7 µM
- GI50 [29]: 11 µM
- TGI [29]: 18.3 µM
- GI50 [30]: 10.3 µM
- TGI [30]: 17.4 µM
- GI50 [32]: 10.6 µM
- TGI [32]: > 50 µM
- GI50 [33]: 11 µM
- TGI [33]: 18.2 µM
- GI50 [35]: 11.3 µM
- TGI [35]: 18.5 µM
- GI50 [36]: 7.47 µM
- TGI [36]: 14.1 µM
- GI50 [37]: 6.55 µM
- TGI [37]: 12.9 µM
- GI50 [38]: 12 µM
- TGI [38]: > 50 µM
- GI50 [39]: 7.68 µM
- TGI [39]: 14.3 µM
- GI50 [40]: 11.5 µM
- TGI [40]: 29.5 µM
- GI50 [41]: 7.71 µM
- TGI [41]: 15.4 µM
- GI50 [42]: 9.81 µM
- TGI [42]: 24.2 µM
- GI50 [55]: 8.05 µM
- TGI [55]: 14.8 µM
- GI50 [56]: 8.85 µM
- TGI [56]: 17.9 µM
- GI50 [43]: 0.005 µM
- TGI [43]: 0.234 µM
- GI50 [44]: 8.27 µM
- TGI [44]: 15.1 µM
- GI50 [45]: 7.71 µM
- TGI [45]: 14.4 µM
- GI50 [46]: 6.86 µM
- TGI [46]: 13.3 µM
